Experimental data reported in ChEMBL document CHEMBL2040836, “1,3,8-Triazaspiro[4.5]decane-2,4-diones as efficacious pan-inhibitors of hypoxia-inducible factor prolyl hydroxylase 1-3 (HIF PHD1-3) for the treatment of anemia” (J Med Chem, 2012).

Legend:
Mus musculus [1] = test: Toxicity in C57BL/6 mouse assessed as increase in liver ALT level at 50 mg/kg, iv; assay type: organism-based; design: dose 50 mg/kg, route intravenous; details: in vivo
in vivo [2] = details: Sprague-Dawley, rat
in vivo [3] = details: Sprague-Dawley, rat; remark: listed apart in the source
in vivo [4] = details: Sprague-Dawley, rat; remark: listed apart in the source
in vivo [5] = details: Sprague-Dawley, rat; remark: listed apart in the source
in vivo [6] = details: Sprague-Dawley, rat, po
[7] = Metabolic stability in rat liver microsomes assessed as compound remaining after 30 mins; assay type: ADME, Microsome; details: read-out: Stability
[8] = AUC in Sprague-Dawley rat; assay type: ADME, organism-based; design: concentration or dose not given beside the values; details: plasma
[9] = Cmax in mouse at 5 mg/kg, po; assay type: ADME, organism-based; design: dose 5 mg/kg, route oral; details: in vivo
[10] = Clearance in mouse at 5 mg/kg, po; assay type: ADME, organism-based; design: dose 5 mg/kg, route oral; details: in vivo
Mus musculus [11] = test: Volume of distribution at steady state in mouse at 5 mg/kg, po; assay type: ADME, organism-based; design: dose 5 mg/kg, route oral; details: in vivo
[12] = (§1) Half life in mouse at 5 mg/kg, po; assay type: ADME, organism-based; design: dose 5 mg/kg, route oral; details: in vivo
[13] = Oral bioavailability in mouse at 5 mg/kg; assay type: ADME, organism-based; details: in vivo
[14] = AUC in mouse at 5 mg/kg, po; assay type: ADME, organism-based; design: dose 5 mg/kg, route oral; details: plasma
[15] = Cmax in dog; assay type: ADME, organism-based, Canis lupus familiaris; details: in vivo
[16] = Clearance in dog; assay type: ADME, organism-based, Canis lupus familiaris; details: in vivo
[17] = Volume of distribution at steady state in dog; assay type: ADME, organism-based, Canis lupus familiaris; details: in vivo, read-out: Vdss
[18] = Half life in dog; assay type: ADME, organism-based, Canis lupus familiaris; details: in vivo
[19] = AUC in dog; assay type: ADME, organism-based, Canis lupus familiaris; details: plasma
[20] = Oral bioavailability in dog; assay type: ADME, organism-based, Canis lupus familiaris; details: in vivo
Mus musculus [21] = test: as §1; assay type: ADME, organism-based; design: dose 5 mg/kg, route oral; details: in vivo
Mus musculus [22] = test: Toxicity in C57BL/6 mouse assessed as increase in liver ALT level at 15 mg/kg, iv; assay type: organism-based; design: dose 15 mg/kg, route intravenous; details: in vivo
[23] = Toxicity in iv dosed C57BL/6 mouse assessed as no observable effect level; assay type: organism-based; details: in vivo

SMILES	clearance (in vivo [2]) [mL/min/kg]	Cmax (in vivo [3]) [nM]	Vd (in vivo [4]) [L/kg]	half-life (in vivo [5]) [min]	bioavailability (in vivo [6]) [%]	further results
COc1cc(N2C(=O)N(c3ccc(-c4ccc(C(N)=O)cc4)cc3)C(=O)C23CCN(Cc2ncccc2C)CC3)ncn1						fold change (FC) (Mus musculus [1]): 6.6
Cc1cccnc1CN1CCC2(CC1)C(=O)N(c1ccc(-c3ccc(C(=O)O)cc3)cc1)C(=O)N2c1ncccn1	51	100	2.2	66	18	
Cc1cc(C(=O)O)ccc1-c1ccc(N2C(=O)N(c3cnccn3)C3(CCN(Cc4ncccc4C)CC3)C2=O)cc1	22	390	1.6	90	29	
Cc1cccnc1CN1CCC2(CC1)C(=O)N(c1ccc(-c3ccc(C(=O)O)cc3)cc1)C(=O)N2c1ccncn1	16	580	2	132	8	
Cc1cc(C(=O)O)ccc1-c1ccc(N2C(=O)N(c3ccncn3)C3(CCN(Cc4ncccc4C)CC3)C2=O)cc1	34	390	1.9	66	47	
Cn1ccnc1CN1CCC2(CC1)C(=O)N(c1cnc3ccccc3c1)c1ccccc12						remaining at 0.5 h [7]: < 10%
Cc1cccnc1CN1CCC2(CC1)C(=O)N(c1cnc3ccccc3c1)c1ccccc12						remaining at 0.5 h [7]: 35%
Cc1cccnc1CN1CCC2(CC1)C(=O)N(c1ccc(-c3ccccc3)cc1)c1ccccc12	30	79	8.2	180	11	AUC [8]: 1.2 µM·h
Cc1cccnc1CN1CCC2(CC1)C(=O)N(c1ccc(-c3ccccc3)cc1)c1ncccc12	59	40	8	114	0	AUC [8]: 0.6 µM·h
Cc1cccnc1CN1CCC2(CC1)NC(=O)N(c1ccc(-c3ccccc3)cc1)C2=O	275	17	2.6	7.2	42	AUC [8]: 0.14 µM·h
Cc1cccnc1CN1CCC2(NC(=O)N(c3ccc(-c4ccccc4)cc3)C2=O)C(C(=O)O)C1 (stereo unspecified)	11	40	0.58	66	14	AUC [8]: 3.2 µM·h
Cc1cccnc1CN1CCC2(CC1)C(=O)N(c1ccc(-c3ccccc3)cc1)C(=O)N2c1nccc(O)n1	9	990	0.72	66	66	AUC [8]: 3.7 µM·h; Cmax [9]: 990 nM; CL/F [10]: 13 mL/min/kg; Vdss (Mus musculus [11]): 1.3 L/kg; half-life [12]: 84 min; bioavailability [13]: 78%; AUC [14]: 1.4 µM·h; Cmax [15]: 1500 nM; clearance [16]: 1.3 mL/min/kg; Vd [17]: 1.1 L/kg; half-life [18]: 780 min; AUC [19]: 41 µM·h; bioavailability [20]: 26%
Cc1cccnc1CN1CCC2(CC1)C(=O)N(c1ccc(-c3ccccc3)cc1)C(=O)N2c1ncccn1	51	101	2.1	66	18	
Cc1cccnc1CN1CCC2(CC1)C(=O)N(c1ccc(-c3ccccc3)cc1)C(=O)N2c1cc(O)ccn1	35	340	1.4	30	49	
Cc1cccnc1CN1CCC2(CC1)C(=O)N(c1ccc(-c3ccccc3)cc1)C(=O)N2c1ccnc(O)n1	14	1300	0.9	72	39	
Cc1cccnc1CN1CCC2(CC1)C(=O)N(c1ccc(-c3ccccc3)cc1)C(=O)N2c1ccc(O)nn1	40	300	1.1	72	58	
Cc1cccnc1CN1CCC2(C(=O)N(c3ccc(-c4ccccc4)cc3)C(=O)N2c2cc(O)ncn2)C(C(=O)O)C1 (stereo unspecified)	1.2	63	0.34	216	4.3	Cmax [9]: 300 nM; Vdss (Mus musculus [11]): 0.4 L/kg; t1/2 (Mus musculus [21]): 2.1 h; bioavailability [13]: 7.1%
COc1cc(N2C(=O)N(c3ccc(-c4ccc(C(=O)O)cc4)cc3)C(=O)C23CCN(Cc2ncccc2C)CC3)ncn1	8.8	1900	1.7	156	92	Cmax [9]: 6100 nM; CL/F [10]: 1.2 mL/min/kg; Vdss (Mus musculus [11]): 0.4 L/kg; half-life [12]: 222 min; bioavailability [13]: 36%
COc1cc(N2C(=O)N(c3ccc(-c4cccc(C(=O)O)c4)cc3)C(=O)C23CCN(Cc2ncccc2C)CC3)ncn1						fold change (FC) (Mus musculus [22]): 6.1
COc1cc(N2C(=O)N(c3ccc(-c4ccc(C(=O)O)cc4C)cc3)C(=O)C23CCN(Cc2ncccc2C)CC3)ncn1	11.9	570	4.3	246	64	NOAEL [23]: 50 mg/kg
